Results: US11932610B1, “4-(5-(3-fluorophenyl)-4-phenyl-4H-1,2,4-triazol-3-ylthio)butanoic acid as an antimicrobial compound” (priority 2023, dated 2024)

Key:
[1] = system: Bacillus cereus, Staphylococcus aureus, Pseudomonas aeruginosa, Escherichia coli, Aspergillus flavus, Chrysosporium keratinophilum; assay: agar plate disc-diffusion antimicrobial test; format: cell-based; conditions: 6 mm discs wetted with 10 μL of 10 mg/mL in DMSO; 37° C., 48 h (72 h for fungi); DMSO control zone subtracted
Protocol: The agar plate disc-diffusion method was applied. Sterilized filter papers (6 mm in diameter) were wetted with 10 μL of a solution of 4-(5-(3-fluorophenyl)-4-phenyl-4H-1,2,4-triazol-3-ylthio)butanoic acid (III) to be tested, containing 10 mg/mL in DMSO, and the discs were allowed to air dry. The discs were then placed onto the surface of agar plates (nutrient agar for bacteria and Sabouraud's dextrose agar for fungi) seeded with the test organism. Each plate contained 15 mLof the agar medium, previously seeded with 0.2 mL of the broth culture of each organism pregrown for 18 h. The plates were incubated at 37° C. for 48 h, and 72 h for fungi. The inhibition zones was measured in mm. Discs impregnated with DMSO were used as a control, and its inhibition zone was subtracted from the tested compound actual inhibition zone. […] The antibacterial activity was screened against gram positive bacteria namely Bacillus cereus and Staphylococcus aureus and gram-negative bacterial strains namely Pseudomonas aeruginosa and Escherichia coli, while the antifungal activity was screened against Aspergillus flavus and Chrysosporium keratinophilum.

## O=C(O)CCCSc1nnc(-c2cccc(F)c2)n1-c1ccccc1 [III, 4-(5-(3-fluorophenyl)-4-phenyl-4H-1,2,4-triazol-3-ylthio)butanoic acid]
[1]
  antimicrobial activities against different microbes: excellent antimicrobial activities
other
  melting point: 173 °C
